{
  "source": "patent US20250057791A1",
  "about": "“PROTECTION AGAINST ARTHROPOD PARASITES WITH PURINERGIC RECEPTOR (OPR) ANTAGONISTS” (priority 2021, published 2025)",
  "key": {"[1]": {"test_system": "A. gambiae mouthpart ATP-sensitive receptor", "assay": "Electrophysiological response to 200 pM ATP with PR antagonist admixed", "format": "cell-based, Anopheles gambiae", "conditions": "for effect on EP response to ATP, in words: 200 pM ATP, suramin at 1 nM; for ID95 in nM (±s.e.m.): increasing doses admixed to 200 pM ATP", "experimental": "The tip recording method was used to record action potentials (spikes) from sensory cells in sensilla on A. gambiae labellum lobes.\nSensilla were exposed to test compounds and PR antagonists for ca. 2-4 s and spikes were counted in the first 2 s of recordings. Up to 4 test compounds were tested on a sensillum to evaluate potential agonists, each presented at 200 pM. To study responses as a function of dose for agonists ATP, adenosine, AMP, AMP-CPP and ATP+adenosine, up to 7 recordings were made at increasing doses of agonist from the same sensillum. Unless otherwise stated, recordings were made throughout from 4 to 16 sensilla from individual 4-6-day-old females per dose of agonist, antagonist and metal ion modulator. For example, a response curve established over 6 doses of an antagonist using 8 sensilla per dose involved recording from a sensillum of 48 separate mosquitoes. A given dose of a PR antagonist or metal ion modulator was only presented once to a sensillum. Two-second recordings were imported as ASCII files into DataView software for analysis of spike amplitude. Differences in spike amplitude generated by stimulation of one 8v sensillum/female with 1 mM sucrose (n=294 spikes from 6 females) 200 pM adenosine (n=207 spikes from 7 females) and 200 pM ATP (n=192 spikes from 7 females) were compared by measuring the spike amplitude in mV between the highest point of depolarisation and the lowest point of hyperpolarisation.\nPairwise comparisons of A. gambiae electrophysiological (EP) responses to ATP and adenosine alone and combined with a given dose of PR antagonist, EP responses to ATP alone and combined with a given dose of a metal modulator, and EP responses to ATP prior to and after exposure of a sensillum to a given dose of a PR antagonist were made with a one-tailed Wilcoxon signed-rank test for data showing a non-normal distribution, with a paired Student's t-test for normally distributed data showing homogeneous variance and with a Welch's t-test for normally distributed data showing non-homogeneous variance. Effects on feeding of adding ATP, AMP-CPP, adenosine, ATP+adenosine, AMP and ADP-βS, CPT with ATP or adenosine, TMP with ATP+adenosine, TMP+CPT with ATP+adenosine to the FS for A. gambiae, and of adding PR antagonists with ATP to the FS for A. stephensi were compared using one-tailed Mann-Whitney U-test or Welch's t-test, depending on data distribution; Holm's FWEC was applied where treatment comparisons involved the same positive control. Percent feeding inhibition induced by PR antagonists in A. stephensi was calculated using Abbott's formula.\nDose-response models fitted to mosquito data were generated using the ‘drm’ command in the “drc” R package (version 2.5-12). Best fitting models (goodness of fit) and effects of dose of a compound were assessed using, respectively, ‘modelFit’ and ‘noEffect’ functions in the same R package. A 3-parameter logistic model (L3) was fitted to spike-counts recorded to increasing doses of adenosine, AMP, ATP and AMP-CPP. Spike numbers recorded in response to 200 pM ATP with increasing doses of PR antagonists added were analysed using a 4-parameter log-logistic model (LL.4) for A-317491 and spinorphin, using a 4-parameter Weibull model (W1.4) for PPADS, RB-2 and TMP, and using a 3-parameter log-logistic model (LL.3) for suramin. An L3 model was fitted to proportions of females feeding on increasing doses of ATP. Feeding rates on 20 μM ATP with increasing doses of a PR antagonist added were analysed using a 4-parameter log-logistic model (LL.4) with the median of the positive control (20 μM ATP) fixed as the upper asymptote. Response dynamics in 3-parameter models are related to the slope b, the upper asymptote, and inflexion point of the model e (the ED50 value), whereas 4 parameter models also include the lower asymptote parameter. […]"}, "A. stephensi": {"test_system": "A. stephensi", "assay": "Membrane feeding assay, A. stephensi", "format": "in vivo, Anopheles stephensi", "conditions": "for effect on feeding on solution containing ATP, in words: doses as in Table 8", "experimental": "Experiments with A. gambiae and A. stephensi were made in a climate chamber at 28° C. and 80% RH during the last 6 hours of scotophase. As a sugar meal can interfere with the blood meal by reducing the number of females that feed, the sucrose solution supplied in rearing cages to mosquitoes employed for feeding experiments was reduced to 5%. […] The 5% sucrose solution was presented to mosquitoes from emergence on four 1 cm diam. cotton dental rolls (Hartmann A G, Neuhausen, Switzerland) inserted in 10 ml upturned glass vials placed in holes at each corner of the rearing cage ceiling. Cotton rolls were turned daily in vials and renewed every two days. Mosquitoes were not fed blood and were deprived of sucrose 17 to 20 hours before experiments. Thirty min before a feeding experiment, between 10-25, 6-day-old females that responded to activation by human breath were removed with a mouth aspirator from the rearing cage wall and placed in polystyrol cylinders with the floor cut out (10 cm dm×15 cm high; Semadeni, Ostermundigen, Switzerland) that served as feeding cages. Each cage was covered with mosquito netting at one end and a soft polyurethane lid at the other.\nMosquitoes were fed for 30 min using a feeding system (Hemotek®, Hemotek Ltd, Blackburn, UK) consisting of 3.5 ml stainless steel reservoirs 37 mm in diameter covered with a 60-90 μm thick silicone-impregnated membrane (Kröber and Guerin, 2007 in “Feeding assays for hard ticks”, Trends in parasitology 23, 445-449; doi 10.1016/j.pt.2007.07.010). Feeding reservoirs reached a temperature of 37° C. within 10 min and were placed on the netting of feeding cages. Mosquitoes were activated using a 200 ms pulse of pure CO2 (volume 6.25 ml) from a pressurised cylinder (Carbagas, Switzerland) using a solenoid valve that caused the CO2 level in the feeding cage to rise to at least 1,500 ppm. Between 3 and 4 sets of 10 feeding cages held in a custom-built Ertacetal® POM frame were tested per day, depending of the number of female mosquitoes available from the colony.\nAll compounds were tested in a mosquito feeding solution (FS) consisting of 25 mM dextrose, 25 mM NaCl buffered with 8.93 mM NaHCO3 adjusted to pH 7.4. Feeding responses of A. gambiae and A. stephensi to ATP as a function of dose were tested with between 7 to 10 feeding cages per dose. Each feeding experiment with an antagonist systematically included a treatment containing the FS as negative control along with a treatment containing the FS […] These positive and negative controls permitted to monitor any effect of experimental day on feeding responses as a function of dose for antagonists that were recorded over several days. […] Four to 10 cages each with 10 to 29 mosquitoes were tested per antagonist dose. […] The number of feeding cages used to test other compounds and their mixtures as feeding stimulants or as feeding inhibitors is listed on Table 6. The percentage of fed mosquitoes was estimated by visual inspection of abdominal distention that is indicative of engorgement.\nPairwise comparisons of A. gambiae electrophysiological (EP) responses to ATP and adenosine alone and combined with a given dose of PR antagonist, EP responses to ATP alone and combined with a given dose of a metal modulator, and EP responses to ATP prior to and after exposure of a sensillum to a given dose of a PR antagonist were made with a one-tailed Wilcoxon signed-rank test for data showing a non-normal distribution, with a paired Student's t-test for normally distributed data showing homogeneous variance and with a Welch's t-test for normally distributed data showing non-homogeneous variance. […]"}},
  "data": [
    {"smiles": "Cc1nc(C)c(C)nc1C", "note": "[TMP, 2,3,5,6-tetramethylpyrazine]", "values": [
      {"measurement": "effect on EP response to ATP, in words", "setting": "[1]", "value": "inhibited"},
      {"measurement": "Mean no. of spikes per 2 s (±s.e.m.), ATP + antagonist", "setting": "[1]; antagonist 10 nM + 200 pM ATP", "value": 11.2, "unit": "spikes per 2 s"},
      {"measurement": "ID95 in nM (±s.e.m.)", "setting": "[1]", "value": 27.50, "unit": "nM"},
      {"measurement": "% Fed females (mean ± s.e.m.)", "setting": "A. stephensi; 0.8 μM, feeding solution with 160 μM ATP", "value": "26.67 ± 2.98", "unit": "%"},
      {"measurement": "inhibition at 0.8 µM", "setting": "A. stephensi; Anopheles stephensi, 0.8 μM, Abbott's formula", "value": 63.5, "unit": "%"},
      {"measurement": "effect on feeding on solution containing ATP, in words", "setting": "A. stephensi", "value": "inhibited feeding"}
    ]},
    {"smiles": "Cc1ccc(C(=O)Nc2ccc(S(=O)(=O)O)c3cc(S(=O)(=O)O)cc(S(=O)(=O)O)c23)cc1NC(=O)c1cccc(NC(=O)Nc2cccc(C(=O)Nc3cc(C(=O)Nc4ccc(S(=O)(=O)O)c5cc(S(=O)(=O)O)cc(S(=O)(=O)O)c45)ccc3C)c2)c1", "note": "[Suramin]", "values": [
      {"measurement": "Mean no. of spikes per 2 s (±s.e.m.), ATP + antagonist", "setting": "[1]; antagonist 0.6 nM + 200 pM ATP", "value": 4.20, "unit": "spikes per 2 s"},
      {"measurement": "ID95 in nM (±s.e.m.)", "setting": "[1]", "value": 1.15, "unit": "nM"},
      {"measurement": "% Fed females (mean ± s.e.m.)", "setting": "A. stephensi; 80 μM, feeding solution with 160 μM ATP", "value": "30.04 ± 7.75", "unit": "%"},
      {"measurement": "inhibition at 80 µM", "setting": "A. stephensi; Anopheles stephensi, 80 μM, Abbott's formula", "value": 58.8, "unit": "%"}
    ]},
    {"smiles": "Nc1ncnc2c1ncn2[C@@H]1O[C@H](COP(=O)(O)OP(=O)(O)OP(=O)(O)O)[C@@H](O)[C@H]1O", "note": "[ATP, Adenosine 5′-triphosphate]", "values": [
      {"measurement": "% Fed females (mean ± s.e.m.)", "setting": "A. stephensi; ATP 160 μM, positive control", "value": "72.96 ± 5.9", "unit": "%"},
      {"measurement": "ED95, feeding stimulant", "setting": "A. stephensi; feeding as a function of dose", "value": 160, "unit": "µM"}
    ]},
    {"smiles": "O=C(O)c1cc(C(=O)O)c(C(=O)N(Cc2cccc(Oc3ccccc3)c2)[C@H]2CCCc3ccccc32)cc1C(=O)O", "note": "[A-317491, 5-[(3-phenoxyphenyl)methyl-[(1S)-1,2,3,4-tetrahydronaphthalen-1-yl]carbamoyl]benzene-1,2,4-tricarboxylic acid]", "values": [
      {"measurement": "effect on EP response to ATP, in words", "setting": "[1]", "value": "inhibited"},
      {"measurement": "Mean no. of spikes per 2 s (±s.e.m.), ATP + antagonist", "setting": "[1]; antagonist 0.5 nM + 200 pM ATP", "value": 7.5, "unit": "spikes per 2 s"},
      {"measurement": "% Fed females (mean ± s.e.m.)", "setting": "A. stephensi; 0.08 μM, feeding solution with 160 μM ATP", "value": "29.68 ± 7.14", "unit": "%"},
      {"measurement": "inhibition at 0.08 µM", "setting": "A. stephensi; Anopheles stephensi, 0.08 μM, Abbott's formula", "value": 59.3, "unit": "%"},
      {"measurement": "effect on feeding on solution containing ATP, in words", "setting": "A. stephensi", "value": "inhibited feeding"}
    ]}
  ]
}
